Laboratory results from publication PMC7794433, “Peptide signaling without feedback in signal production operates as a true quorum sensing communication system in Bacillus subtilis” (Communications Biology, 2021).
Entries after “also recorded” stand apart in the source; their conditions may differ.

Key:
[1] = Aging of purified ComX stock solution followed by HPLC; format: physicochemical; settings: 4 °C
Method: spectrometer (Bruker, Germany). FlexControl 3.3 software (Bruker, Germany) was used to control the instrument, FlexAnalysis 3.3 to process data and to calibrate spectra (Bruker, […]
two-sided), for about 2-fold compared to the original medium (Fig. S6b ). To further increase […]
recombinant proteins in E. coli and gained altogether significant 5-fold increase (P < 0.0001, t-value= 9.6, two- sided) compared to the original medium. The overnight LB E. coli ED367 culture, supplemented with 100 µg/mL of Amp, grown in 37 °C (200 rpm), was transferred to fresh TB medium (1 % inoculum) supplemented by 20 mM MgCl2 and 100 µg/mL of Amp.
After about 2 h and 45 min of incubation at 37 °C (200 rpm) when culture reached OD650 of […]., the spent growth medium was removed by culture centrifugation (5000 g, 5 min, room temperature). […]
β-galactosidase assay. […] To improve the sensitivity of the assay, the plates were then warmed to 30 °C, 25 μL ortho- nitrophenyl-β-galactoside (ONPG) substrate (8 mg/mL) was added and the absorbance (420 nm) in 1 min intervals was read using a Multiscan Spectrum […]
Supplementary Figure 5: Maximum normalized response measured as the srfA promoter activity of B. subtilis PS-216 (∆comQ, PsrfAA -yfp) (no signal production) to the exogenously added signal molecule, SM, (ComX). […]
SS buffer at 4 °C as measured by HPLC. […]

[2] = system: B. subtilis proteases; test: Biological degradation of ComX in B. subtilis spent medium; format: in vitro ADME, Bacillus subtilis; settings: spent CM medium max 7 h old; assumption from low protease content
Method: cells per unit volume (cell density), N(t) , and the time cells were producing the molecule, t . The molecule of interest can potentially get degraded by the degradation rate γ(t ). In the differential form and as a function of time one can express concentration of signal molecule SM(t) as:
dddddd (tt ) = PPdddd (tt ) NN (tt ) − γγ (tt )SSSS (tt ) eq S1 […]
spent medium obtained after 24 h of incubation with PS -216 wt (when the proteases accumulated in enough high concentration). In our case, however, the spent media were maxi mal 7 h old and the protease content of spent CM growth medium used in current study […]
(Supplementary Fig. 7). Therefore , we assumed that biological degradation of SM (ComX) is negligible under conditions in this study. Under the buffered conditions (as in CM growth […]
experiments where we applied our model. Therefore, in our modeling we assumed that degradation rate of SM is negligible (γ(t) ≈ 0) and the eq S 1 can be simplified to: […]
Normalized fluorescence intensity per cell Normalized fluorescence intensity per cell
Supplementary Figure 8: The second replicate (for first replicate, see Fig 5g,h) of the distribution of gene expression measured by single cell fluorescence microscopy. Gene expression level was measured as Na-fluoresceinate standard normalized mean fluorescence intensity per cells expressing comQ -yfp (a) and srfA -cfp (b). […]

[3] = system: B. subtilis proteases; settings: 24 h MSgg spent medium of PS-216 wt; 24 h incubation; ref Spacapan et al.22; cited from earlier work
Excerpt: page 5: cells per unit volume (cell density), N(t) , and the time cells were producing the molecule, t . The molecule of interest can potentially get degraded by the degradation rate γ(t ). […] The protease content of CM growth medium used in t ...

[4] = system: ComX biosensor BD2876 (ΔcomQ, srfA-lacZ); test: β-galactosidase response of ComX biosensor BD2876 to spent medium or added ComX; format: cell-based, Bacillus subtilis; settings: ≈1 nM ComX in PS-216 ΔcomQ spent medium (positive control)
Method: Overnight cultures were grown in competence medium[57] (CM) supplemented with L-histidine, L-leucine, and L-methionine (50 μg mL^–1). Prior to fermenter inoculation, the cells were washed twice by replacing the spent medium of overnight culture with SS buffer[58]. Cell suspension was inoculated into 1.2 L of fresh CM (2% inoculum). Incubation was performed at 37 °C with mixing at 700 rpm and the closed off air flow. In instances where we tested O2 impact on SM concentration the medium was saturated with O2 by ensuring a supply of compressed air at a flow rate of 1 L min^-1. The dissolved O2 was measured using the O2 polarized electrode InPro 6820 (Mettler Toledo). No pH correction was performed or anti foaming agents were added.
control) ▲,,, or supplemented with the wt strain spent medium 10 times diluted by spent medium of the
ΔcomQ strain (experimental) ▲,,; The spent medium of the PS-216 (ΔcomQ) strain was obtained in the
parallel fermenter batch system. The strains PS-216 wt and PS-216 (ΔcomQ) were grown in the fermenter batch
system where oxygen supply was limited (a) or supplied to the saturation (b).
to 3 independent experiments.

[5] = system: srfA promoter in B. subtilis PS-216 (∆comQ, PsrfAA-yfp); test: srfA promoter response (Yfp fluorescence per cell) to exogenously added ComX; format: cell-based, Bacillus subtilis
Method: In our model, the expression level of the srfA operon serves as a measure for the response (RM) to the signal molecule SM, represented by ComX. To study how RM depends on SM we evaluated promoter activity of srfA in the B. subtilis PS-216 (∆comQ, PsrfAA-yfp), which carries the markerless deletion of comQ[42] and is therefore signal-deficient. […] The response to SM was sigmoidal. […] We have therefore taken the 4 hours response curve (Fig. 4a) as a reference for further communication system analysis. The sigmoidal functions can typically describe the relationship between transcription factors and promoter activities, and can be modeled by the Hill equation[43],[44]. […] This agrees with the research showing that two molecules of the ComA homodimer cooperatively bind to the two promoter regions located upstream of the RNAP binding sites of srfA[13],[20],[45].
To quantify a response (RM) to different signal molecule (SM) concentrations at the population level we used the signal deficient B. subtilis PS-216 (∆comQ PsrfAA-yfp), which carries the comQ marker-less deletion and the srfA promoter tagged with the Yfp fluorescent reporter (Supplementary Table 1).
(final concentration of 50 µg mL^–1). […] The plate was placed on a microtiter plate shaker (1 mm orbit, 1100 rpm) that was positioned in the humidified chamber to eliminate sample evaporation. To improve the homogeneity of the conditions (airflow, temperature) on the microtiter plate the microtiter plate lids were elevated by 2 mm relative to the surface of microtiter plate. The plates were incubated at 37 °C for 3, 4, or 6 h. The cells were then re-suspended and fixed in 200 µL of 1% agarose containing DAPI dye (6 µg mL^−1).
For quantitative analysis we used laser confocal fluorescence microscopy (Zeiss, LSM 800). The images were acquired by two laser channels—488 nm laser for acquiring fluorescence from Yfp protein and 405 nm laser to acquire fluorescence from DAPI dye. The acquired images were 1024 × 1024 pixels in size with 16-bit color depth at 20× optical magnification (objective 20×/NA 0.4, Zeiss) and were analyzed with Fiji-ImageJ[59] custom script. Four images per well of microtiter plate were taken, each image contained about 350 cells. The measure for amount of Yfp on image was integrated density i.e., the product of mean fluorescence intensity and area taken by the cells. The response per cell was quantified as the ratio of image integrated density by the number of cells obtained from DAPI image.
The analytical form of the model equation for response per cell to the signal during bacterial growth in the fermenter batch system (Eq. 3, eq S11) was derived and fitted to the experimental data by the help of Wolfram Mathematica 11.0 (Wolfram Research, Inc.). […]

With “ADPITRQWGD [ComX, isoprenylated (farnesylated) quorum sensing signal peptide of B. subtilis, HPLC purified from E. coli ED367]” the “Half-life time of ComX” value ([1]; purified ComX stock (typically 200 nM) in SS buffer with BSA 50 μg/mL, n = 8 independent experiments) was “about 50 days”, the Chemical stability ([1]; purified ComX, SS buffer) was “strong chemical stability” and the “Biological degradation in spent CM medium” value [2] was “negligible”. For the same sequence, the “Degradation in MSgg spent medium” value [3] was “significant level only after incubating ComX for 24 h; also recorded: can degrade”, the “Biosensor BD2876 response to added purified ComX” value [4] was “strongly responded” and the “ComX concentration at which the highest response value is reached” value ([5]; 37 °C, CM medium, n = 4) was “around 10 nM”. For the same sequence, the “Shape of response to ComX” value ([5]; 4 h incubation, exogenously added ComX) was “sigmoidal”, the “Lower limit response (LLR), critical ComX concentration required to induce quantifiable response” value ([5]; first significantly positive response (lower 95% confidence level > 0), 37 °C, CM medium) was 0.2 to 0.5 nM and the Km ([5]; read-out: Km, ComX concentration at which half of the maximum response is achieved, Hill fit (Eq. 2) of srfA promoter Yfp fluorescence per cell, CM medium, 37 °C, 3, 4 or 6 h incubation, BSA added, n = 4) was 3 to 5 nM.
